Results reported in patent US20130116267A1 (priority 2010, published 2013).
“Also recorded” adds a separate entry of the source. Like-named read-outs stand apart in the source and are kept apart here.

How the values were obtained:
PI3K p110 delta = PI3K p110 delta (Homo sapiens, UniProt O00329); settings: cited from earlier work
neutrophils = settings: read-out: IC50 in fMLP-induced elastase exocytosis from neutrophils; cited from earlier work
CD3-induced IL-2 release = settings: Lewis rats; cited from earlier work
[1] = system: influenza virus strain PR8; assay type: cell-based
[2] = system: H7N7 A/Equine/London/1416/73 influenza virus strain; assay type: in vivo; settings: wild type mice, 10×LD50 H7N7 London strain; vs vehicle only; FIG. 3B
HIV-1Ba-L = test: HIV-1 p24 levels in supernatants of infected PHA/IL-2-activated PBMC; assay type: cell-based; settings: n=4 donors, PBMC cultured with 1 μM, 10 μM or 50 μM, FIG. 4
[3] = system: PHA-activated CD4+ T cells; test: CD25 expression on CD4+ T cells exposed to HIV-1 (flow cytometry); assay type: cell-based, human; settings: PHA-activated CD4+ T cells exposed to HIV-1; different concentrations, n=3; FIG. 6

Chain of PI3K p110 delta (O00329 whole entry): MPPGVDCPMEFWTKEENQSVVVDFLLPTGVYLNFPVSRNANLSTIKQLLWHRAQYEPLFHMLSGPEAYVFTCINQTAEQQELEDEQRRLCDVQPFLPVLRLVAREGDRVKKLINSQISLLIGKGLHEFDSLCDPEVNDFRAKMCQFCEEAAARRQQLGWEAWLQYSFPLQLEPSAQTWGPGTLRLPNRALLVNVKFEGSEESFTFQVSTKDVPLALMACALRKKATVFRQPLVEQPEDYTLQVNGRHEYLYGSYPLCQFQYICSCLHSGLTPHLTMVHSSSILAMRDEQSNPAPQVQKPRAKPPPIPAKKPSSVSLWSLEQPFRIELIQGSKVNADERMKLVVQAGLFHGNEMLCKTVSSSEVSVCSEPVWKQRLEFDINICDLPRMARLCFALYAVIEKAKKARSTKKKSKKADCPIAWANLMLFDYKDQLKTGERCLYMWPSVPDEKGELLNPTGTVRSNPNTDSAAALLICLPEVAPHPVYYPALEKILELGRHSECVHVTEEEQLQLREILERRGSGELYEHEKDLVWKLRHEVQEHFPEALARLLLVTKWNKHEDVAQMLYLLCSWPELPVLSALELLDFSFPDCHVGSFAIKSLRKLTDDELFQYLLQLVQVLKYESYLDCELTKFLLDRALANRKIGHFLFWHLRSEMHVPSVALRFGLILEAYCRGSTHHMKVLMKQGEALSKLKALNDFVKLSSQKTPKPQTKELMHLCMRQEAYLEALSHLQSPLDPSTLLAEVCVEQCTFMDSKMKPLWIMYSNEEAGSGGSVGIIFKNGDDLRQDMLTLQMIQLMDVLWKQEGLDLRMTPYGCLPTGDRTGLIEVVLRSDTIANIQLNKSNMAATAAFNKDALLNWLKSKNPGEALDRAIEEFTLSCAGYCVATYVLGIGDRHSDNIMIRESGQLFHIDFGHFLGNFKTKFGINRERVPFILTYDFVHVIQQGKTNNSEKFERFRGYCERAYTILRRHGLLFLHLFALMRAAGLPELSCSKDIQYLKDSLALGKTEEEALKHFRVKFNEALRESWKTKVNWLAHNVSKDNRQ
Chain of PI3K p110 delta (P27986 whole entry partner): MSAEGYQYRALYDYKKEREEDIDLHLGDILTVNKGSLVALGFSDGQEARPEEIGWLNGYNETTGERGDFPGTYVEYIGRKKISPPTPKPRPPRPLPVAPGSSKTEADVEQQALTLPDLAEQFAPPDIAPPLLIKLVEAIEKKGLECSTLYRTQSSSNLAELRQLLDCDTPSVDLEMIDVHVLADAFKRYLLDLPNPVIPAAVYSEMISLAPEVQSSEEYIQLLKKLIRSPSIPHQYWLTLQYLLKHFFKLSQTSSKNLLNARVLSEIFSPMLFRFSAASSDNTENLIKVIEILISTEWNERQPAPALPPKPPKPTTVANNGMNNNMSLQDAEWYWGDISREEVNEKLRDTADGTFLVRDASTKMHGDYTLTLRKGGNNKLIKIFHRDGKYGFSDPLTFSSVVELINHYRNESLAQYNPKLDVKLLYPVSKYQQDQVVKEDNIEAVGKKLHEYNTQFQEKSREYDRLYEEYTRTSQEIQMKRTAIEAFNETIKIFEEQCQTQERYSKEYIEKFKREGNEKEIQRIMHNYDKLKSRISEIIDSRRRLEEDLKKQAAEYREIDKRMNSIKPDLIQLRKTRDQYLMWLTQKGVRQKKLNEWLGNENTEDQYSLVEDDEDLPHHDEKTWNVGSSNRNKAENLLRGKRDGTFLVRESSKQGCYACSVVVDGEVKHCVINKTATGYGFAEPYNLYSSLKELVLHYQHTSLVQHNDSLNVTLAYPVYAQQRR

## CC(c1nc2ccsc2c(=O)n1-c1ccccc1)n1cnc2c(N)ncnc21 (stereo not drawn) [Compound (IV), 2-(1-(6-amino-9H-purin-9-yl)ethyl)-3-phenylthieno[3,2-d]pyrimidin-4(3H)-one]
PI3K p110 delta; read-out: PI3K p110 delta IC50
  IC50: 40 nM

## Cc1noc2nc(C(C)Sc3ncnc4[nH]cnc34)n(-c3ccccc3)c(=O)c12 (stereo not drawn) [Compound (V), 6-(1-((9H-purin-6-yl)thio)ethyl)-3-methyl-5-phenylisoxazolo[5,4-d]pyrimidin-4(5H)-one]
neutrophils
  IC50: 1200 nM

## Cc1oc2ncn(CC(C)C)c(=O)c2c1C(=O)NCc1cccnc1 [Compound (VI), 3-isobutyl-6-methyl-4-oxo-N-(pyridin-3-ylmethyl)-3,4-dihydrofuro[2,3-d]pyrimidine-5-carboxamide]
PI3K p110 delta; read-out: PI3K p110 delta IC50
  IC50: 1200 nM

## COCC(O)Cn1cc(-c2ccc3c(c2)N(c2nc4c(s2)C(=O)NC(C)(C)C4)CCO3)cn1 (stereo not drawn) [Compound (XXI), 2-(6-(1-(2-hydroxy-3-methoxypropyl)-1H-pyrazol-4-yl)-2H-benzo[b][1,4]oxazin-4(3H)-yl)-6,6-dimethyl-6,7-dihydrothiazolo[5,4-c]pyridin-4(5H)-one]
CD3-induced IL-2 release
  ED50 in a CD3-induced IL-2 release study: 5 mg/kg

## Nc1nc(N)c2nc(-c3cccc4[nH]ccc34)cnc2n1 [Compound (XXIX), 6-(1H-indol-4-yl)pteridine-2,4-diamine]
PI3K p110 delta; read-out: PI3K p110 delta IC50
  IC50: 64 nM

## COc1ncc(-c2ccc3nccc(-c4ccncc4)c3c2)cc1NS(=O)(=O)c1ccc(F)cc1F [Compound (XXXII), 2,4-difluoro-N-(2-methoxy-5-(4-(pyridin-4-yl)quinolin-6-yl)pyridin-3-yl)-benzenesulfonamide]
PI3K p110 delta; read-out: apparent PI3K p110 delta IC50
  IC50: 0.024 nM

## Cc1ccccc1-n1c(Cn2cnc3c(N)ncnc32)nc2cccc(C)c2c1=O [IC87114, 2-[(6-amino-9H-purin-9-yl)methyl]-5-methyl-3-(o-tolyl)quinazolin-4(3H)-one]
[1]
  influenza virus replication: inhibits influenza virus replication
[1]; A549 epithelial cell line infected with influenza virus, FIG. 1B: 100 μM, PR8, MOI=0.01
  viral mRNA production reduced compared to untreated cells: ~25 fold
[2]
  survival after lethal challenge: increased survival; also recorded: protects mice lethally challenged
HIV-1Ba-L
  reduction of 48 hour HIV-1 p24 levels: approximately 80%
[3]
  CD25 expression: not affected
A549 cell
  survival of A549 cell: did not affect the survival
